Data as given in patent publication US6251943A, “Method of treating or preventing septic shock by administering a MEK inhibitor” (Warner-Lambert Company, priority 1999, dated 2001).

The compounds below were run against MEK (Homo sapiens, UniProt Q02750) (assay: In vitro MEK inhibition (cascade assay for inhibitors of the MAP kinase pathway / in vitro MEK assay)). Details: Table 1.
Sequence of MEK (Q02750 whole entry): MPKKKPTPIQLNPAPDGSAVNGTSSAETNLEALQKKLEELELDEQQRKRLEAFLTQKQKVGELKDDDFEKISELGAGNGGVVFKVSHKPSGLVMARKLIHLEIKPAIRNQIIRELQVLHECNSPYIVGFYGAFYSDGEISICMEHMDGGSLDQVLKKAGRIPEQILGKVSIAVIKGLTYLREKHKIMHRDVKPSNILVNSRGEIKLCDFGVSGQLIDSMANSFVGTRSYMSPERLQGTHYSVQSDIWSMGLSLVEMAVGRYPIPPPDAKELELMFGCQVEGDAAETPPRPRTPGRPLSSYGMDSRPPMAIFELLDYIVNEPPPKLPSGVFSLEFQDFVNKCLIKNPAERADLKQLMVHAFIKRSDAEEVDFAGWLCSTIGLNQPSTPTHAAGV
Format: biochemical
Method: Incorporation of ^32 P into myelin basic protein (MBP) was assayed in the presence of a glutathione S-transferase fusion protein containing p44MAP kinase (GST-MAPK) and a glutathione S-transferase fusion protein containing p45MEK (GST-MEK). The assay solution contained 20 mM HEPES, pH 7.4, 10 MM MgCl2, 1 mM MnCl2, 1 mM EGTA, 50 μM [γ-^32 P]ATP, 10 μg GST-MEK, 0.5 μg GST-MAPK and 40 μg MBP in a final volume of 100 μL. […] Compounds were assessed at 10 μM for ability to inhibit incorporation of ^32 P.
To ascertain whether compounds were inhibiting GST-MEK or GST MAPK, two additional protocols were employed. In the first protocol, compounds were added to tubes containing GST-MEK, followed by addition of GST-MAPK, MBP and [γ-^32 P]ATP. In the second protocol, compounds were added to tubes containing both GST-MEK and GST-MAPK, followed by MBP and [γ-^32 P]ATP.
For evaluation of direct MEK activity, 10 μg GST-MEK1 was incubated with 5 μg of a glutathione S-transferase fusion protein containing p44MAP kinase with a lysine to alanine mutation at position 71 (GST-MAPK-KA). This mutation eliminates kinase activity of MAPK, so only kinase activity attributed to the added MEK remains. Incubations were 15 minutes at 30° C in a final volume of 50 μL containing 50 mM Tris (pH 7.5), […], […], and 10 μM [γ-^32 P]ATP. The reaction was stopped by addition of Laenunli SDS sample buffer and phosphorylated GST-MAPK-KA was resolved by electrophoresis on a 10% polyacrylamide gel. Radioactivity incorporated into GST-MAPK-KA was determined by autoradiography, and subsequently by excision of the bands followed by scintillation counting. […] When these sites are phosphorylated, MEK activity is increased. Phosphorylation of these sites can be mimicked by mutation of the serine residues to glutamate. For this assay, 5 μg GST-MEK-2E was incubated with 5 μg GST-MAPK-KA for 15 minutes at 30° C. in the same reaction buffer as described above. Reactions were terminated and analyzed as above.
`Cc1cc(I)ccc1Nc1cc([N+](=O)[O-])ccc1C(=O)O` [Example 30, 2-(4-Iodo-2-methyl-phenylamino)-4-nitro-benzoic acid] was tested, and the IC50 was 105000 nM.
`CCN(CC)C(=O)c1ccc(F)cc1Nc1ccc(I)cc1C` [Example 43, N,N-Diethyl-4-fluoro-2-(4-iodo-2-methyl-phenylamino)-benzamide] gave an IC50 of over 1000 nM.
Compound `Cc1cc(I)ccc1Nc1ccc(F)cc1C(=O)NOCc1ccccc1` [Example 186, N-Benzyloxy-5-fluoro-2-(4-iodo-2-methyl-phenylamino)-benzamide] has an IC50 of 555 nM.
`Cc1cc(I)ccc1Nc1ccc([N+](=O)[O-])cc1C(=O)NCCO` [Example 195, N-(2-Hydroxy-ethyl)-2-(4-iodo-2-methyl-phenylamino)-5-nitro-benzamide] showed an IC50 of 12800 nM.

Same assay, conditions: Table 2
For `Cc1cc(Br)ccc1Nc1cc(F)ccc1C(=O)NO` [Example 3a, 2-(4-bromo-2-methyl-phenylamino)-4-fluoro-N-hydroxy-benzamide], the IC50 was 72 nM.
`Cc1cc(Cl)ccc1Nc1cc(F)ccc1C(=O)NO` [Example 11a, 4-Fluoro-N-hydroxy-2-(4-cluoro-2-methyl-phenylamino)-benzamide] showed an IC50 of 334 nM.
`Cc1cc(I)ccc1Nc1c(C(=O)NOCC2CC2)cc(Br)c(F)c1F` [Example 58a, 5-Bromo-N-cyclopropylmethoxy-3,4-difluoro-2-(4-iodo-2-methyl-phenylamino)] gave an IC50 of 18 nM.
`Cc1cc(I)ccc1Nc1cc(F)ccc1C(=O)NOCc1ccccc1` [Example 77a, 4-Fluoro-2-(4-iodo-2-methyl-phenylamino)-N-phenylmethoxy-benzamide] gave an IC50 of 280 nM.

The compounds below were run on MAP kinase (assay: "In Vivo" activity (whole cell MAP kinase assay)). Details: Table 2.
Format: cell-based
Method: To determine if compounds were able to block activation of MAP kinase in whole cells, the following protocol was used: Cells were plated in multi-well plates and grown to confluence. Cells were then serum-deprived overnight. Cells were exposed to the desired concentrations of compound or vehicle (DMSO) for 30 minutes, followed by addition of a growth factor, for example, PDGF (100 ng/mL). After a 5-minute treatment with the growth factor, cells were washed with PBS, then lysed in a buffer consisting of 70 mM NaCl, 10 mM HEPES (pH 7.4), 50 mM glycerol phosphate, and 1% Triton X-100. Lysates were clarified by centrifugation at 13,000×g for 10 minutes. Five micrograms of the resulting supernatants were incubated with […] microtubule associated protein-2 (Map2) for 15 minutes at 30° C. in a final volume of 25 μL containing 50 mM Tris (pH 7.4), 10 mM MgCl2, 2 mM EGTA and 30 μM [γ-^32 P]ATP. Reactions were terminated by addition of Laemmli sample buffer. Phosphorylated Map2 was resolved on 7.5% acrylamide gels and incorporated radioactivity determined by autoradiography and subsequent excision of the bands followed by scintillation counting.
The in vitro and in vivo biological activity of several representative compounds of Formula I and II in the foregoing assays is presented in Tables 1 and 2.
`Cc1cc(I)ccc1Nc1cc(F)ccc1C(=O)NO` [Example 1a, 4-Fluoro-N-hydroxy-2-(4-iodo-2-methyl-phenylamino)-benzamide] showed an IC50 of 50 nM.
Work on `Cc1cc(I)ccc1Nc1c(C(=O)NO)cc(Br)c(F)c1F` [Example 2a, 5-Bromo-3,4-difluoro-N-hydroxy-2-(4-iodo-2-methyl-phenylamino)-benzamide] yielded an IC50 of 30 nM.
Work on `Cc1cc(Br)ccc1Nc1cc(F)ccc1C(=O)NO` [Example 3a, 2-(4-bromo-2-methyl-phenylamino)-4-fluoro-N-hydroxy-benzamide] yielded an IC50 of 3000 nM.
Work on `Cc1cc(I)ccc1Nc1ccc(Cl)cc1C(=O)NO` [Example 4a, 5-Chloro-N-hydroxy-2-(4-iodo-2-methyl-phenylamino)-benzamide] yielded an IC50 of 1000 nM.
`Cc1cc(I)ccc1Nc1ccc(Cl)cc1C(=O)N(C)O` [Example 5a, 5-Chloro-N-hydroxy-2-(4-iodo-2-methyl-phenylamino)-N-methyl-benzamide] showed an IC50 of about 30000 nM.
Work on `Cc1cc(I)ccc1Nc1ccc(Cl)cc1C(=O)NOC1CCCCO1` (stereo not shown) [Example 6a, 5-Chloro-2-(4-iodo-2-methyl-phenylamino)-N-(terahydropyran-2-yloxy)benzamide] yielded an IC50 of about 30000 nM.
`CONC(=O)c1cc(Cl)ccc1Nc1ccc(I)cc1C` [Example 7a, 5-Chloro-2-(4-iodo-2-methyl-phenylamino)-N-methoxybenzamide] was tested, and the IC50 was under 30000 nM.
In the case of `Cc1cc(F)ccc1Nc1cc(F)ccc1C(=O)NO` [Example 8a, 4-Fluoro-N-hydroxy-2-(4-fluoro-2-methyl-phenylamino)-benzamide], the IC50 is reported as 3000 nM.
With `Cc1ccccc1Nc1cc(F)ccc1C(=O)NO` [Example 9a, 4-Fluoro-N-hydroxy-2-(2-methylphenylamino)-benzamide] the IC50 was 1000 nM.
Work on `Cc1cc(Cl)ccc1Nc1cc(F)ccc1C(=O)NO` [Example 11a, 4-Fluoro-N-hydroxy-2-(4-cluoro-2-methyl-phenylamino)-benzamide] yielded an IC50 of 500 nM.
Work on `CONC(=O)c1ccc(F)c(F)c1Nc1ccc(I)cc1C` [Example 14a, 3,4-Difluoro-2-(4-iodo-2-methyl-phenylamino)-N-N-methoxy-benzamide] yielded an IC50 of over 2000 nM.
`Cc1cc(I)ccc1Nc1cc(F)ccc1C(=O)NOCc1ccoc1` [Example 20a, 4-Fluoro-N-(furan-3-ylmethoxy)-2-(4-iodo-2-methyl-phenylamino)-benzamide] was tested, and the IC50 was 170 nM.
In the case of `CC=CCONC(=O)c1cc(Br)c(F)c(F)c1Nc1ccc(I)cc1C` [Example 24a, 5-Bromo-N-(but-2-enyloxy)-3,4-difluoro-2-(4-iodo-2-methyl-phenylamino)-benzamide], the IC50 is reported as 120 nM.
With `C#CCCONC(=O)c1ccc(F)c(F)c1Nc1ccc(I)cc1C` [Example 29a, N-(But-3-ynyloxy)-3,4-difluoro-2-(4-iodo-2-methyl-phenylamino)-benzamide] the IC50 was 730 nM.
`Cc1cc(I)ccc1Nc1c(C(=O)NOCC#Cc2cccc(F)c2)ccc(F)c1F` [Example 34a, 3,4-Difluoro-N-[3-(3-fluoro-phenyl)-prop-2-ynyloxy]-2-(4-iodo-2-methyl-phenylamino)-benzamide] showed an IC50 of 1500 nM.
Compound `Cc1cc(I)ccc1Nc1c(C(=O)NOCC#Cc2ccccc2F)ccc(F)c1F` [Example 36a, 3,4-Difluoro-N-[3-(2-fluoro-phenyl)-prop-2-ynyloxy]-2-(4-iodo-2-methyl-phenylamino)-benzamide] has an IC50 of 70 nM.
`CCONC(=O)c1ccc(F)c(F)c1Nc1ccc(I)cc1C` [Example 40a, N-Ethoxy-3,4-difluoro-2-(4-iodo-2-methyl-phenylamino)-benzamide] was tested, and the IC50 was 125 nM.
Work on `CCCONC(=O)c1ccc(F)c(F)c1Nc1ccc(I)cc1C` [Example 43a, 3,4-Difluoro-2-(4-iodo-2-methyl-phenylamino)-N-propoxy-benzamide] yielded an IC50 of 100 nM.
Compound `Cc1cc(I)ccc1Nc1c(C(=O)NOC(C)C)ccc(F)c1F` [Example 47a, 3,4-Difluoro-2-(4-iodo-2-methyl-phenylamino)-N-isopropoxy-benzamide] has an IC50 of 130 nM.
Work on `Cc1cc(I)ccc1Nc1c(C(=O)NOC2CCC2)ccc(F)c1F` [Example 50a, N-Cyclobutyloxy-3,4-difluoro-2-(4-iodo-2-methyl-phenylamino)-benzamide] yielded an IC50 of 220 nM.
With `Cc1cc(I)ccc1Nc1c(C(=O)NOCC2CC2)cc(Br)c(F)c1F` [Example 58a, 5-Bromo-N-cyclopropylmethoxy-3,4-difluoro-2-(4-iodo-2-methyl-phenylamino)] the IC50 was 14 nM.
Compound `C=C(C)CONC(=O)c1ccc(F)c(F)c1Nc1ccc(I)cc1C` [Example 66a, 3,4-Difluoro-2-(4-iodo-2-methyl-phenylamino)-N-(2-methyl-allyloxy)-benzamide] has an IC50 of 130 nM.
With `C#CCONC(=O)c1ccc(F)c(F)c1Nc1ccc(I)cc1C` [Example 71a, 3,4-Difluoro-2-(4-iodo-2-methyl-phenylamino)-N-(prop-2-ynyloxy)-benzamide] the IC50 was 390 nM.
